Converted amounts (≈) assume the structure as drawn.
Assays:
[1] = Conjugation ratio (CR) indicating the number of moles of compound required per 1 mole of antibody (having Molar input ratio (MIR) = 8) was determined
LS174T = experiment: Concentration required to inhibit the incorporation of [3H]leucine to 50 percent of control uptake in LS174T (CEA +ve) Human Colon Carcinoma cells; type: functional, cell-based

Structure (SMILES) | CR [1] | IC50 (LS174T) [µg/mL]
Cc1ccc(C(Nc2nc(N)nc3c2ncn3[C@@H]2O[C@H](CO)[C@@H](O)C2(F)F)(c2ccccc2)c2ccc(C(N)=O)cc2)cc1 (stereo partly drawn) | 5.2 | 6.04 (≈ 10 µM)
COc1ccc(C(Nc2nc(N)nc3c2ncn3[C@@H]2O[C@H](CO)[C@@H](O)C2(F)F)(c2ccc(OC)cc2)c2cccc(C(N)=O)c2)cc1 | 6.44 | 0.352 (≈ 0.544 µM)
COc1ccc(C(Nc2nc(N)nc3c2ncn3[C@@H]2O[C@H](CO)[C@@H](O)C2(F)F)(c2ccc(OC)cc2)c2ccc(C(N)=O)cc2)cc1 | 7.44 | 0.27 (≈ 0.417 µM)
Nc1nc(N)c2ncn([C@@H]3O[C@H](CO)[C@@H](O)C3(F)F)c2n1 | – | 0.26 (≈ 0.86 µM)
COc1ccc(C(Nc2nc(N)nc3c2ncn3[C@@H]2O[C@H](CO)[C@@H](O)C2(F)F)(c2ccccc2)c2ccc(C(N)=O)cc2)cc1 (stereo partly drawn) | 5.73 | 4.94 (≈ 8 µM)
NC(=O)c1ccc(C(Nc2nc(N)nc3c2ncn3[C@@H]2O[C@H](CO)[C@@H](O)C2(F)F)(c2ccccc2)c2ccccc2)cc1 | 4.44 | 10 (≈ 17 µM)
COc1ccc(C(Nc2nc(N)nc3c2ncn3[C@@H]2O[C@H](CO)[C@@H](O)C2(F)F)(c2ccc(C)cc2)c2ccc(C(N)=O)cc2)cc1 (stereo partly drawn) | 7.49 | 2.71 (≈ 4.29 µM)
